Literature values as cited in paper PMC7221964 (Molecules, 2020).
Read-outs that look alike come from different tables or passages of the source.

Tested on: epigenetic reader proteins
Text: ITC studies provided thermodynamic parameters (Gibbs free energy of binding ΔG°, enthalpy of binding ΔH°, entropy of binding ΔS°) for the association between five ...

SMILES | recognition by reader proteins (different epigenetic reader proteins) | recognition by reader proteins (panel of the same five reader proteins)
C[N+](C)(C)CCSCC(N)C(=O)O (centres unmarked) [KCme3, trimethylthialysine] | well recognized | 
C[N+](C)(C)CCCCCC(N)C(=O)O (centres unmarked) [trimethylhomolysine] |  | very well recognized
